{"source": "patent US12728119B2", "about": "“Pharmaceutical composition for preventing or treating cancer comprising 3-ketoacyl CoA thiolase inhibitor and carnitine acylcarnitine carrier inhibitor” (NATIONAL CANCER CENTER, priority 2020, dated 2026)", "test_system": "MIA PaCa-2 cells", "experiment": "Xenograft tumor model", "type": "in vivo, Balb/c-nu mice", "protocol": "MIA PaCa-2 cells (1×10 7) in 100 μl PBS were subcutaneously inoculated into 6-8 weeks old Balb/c-nu mice (Orient, Seoul, Korea) using a 1 ml syringe. After one week, the mice were divided into three groups: a control group (solvent treatment), a KN713 40 mg/kg/100 μl treatment group, and a KN713 80 mg/kg/200 μl treatment group. KN713 was administered intraperitoneally once a day (for 49 days, 6 days/week, n=7). The primary tumor size was measured weekly using a caliper, and the tumor volume was calculated using the formula V=(A×B^2)/2 (V=volume (mm^3), A=long diameter, B=short diameter). This experiment was reviewed and approved by the Institutional Animal Care and Use Committee (IACUC) of the National Cancer Center Research Institute, which was established by the International Association for Accreditation of Laboratory Animals (It was accredited by AAALAC International).", "data": [{"compound": "COc1ccc(CN2CCNCC2)c(OC)c1OC", "note": "[KN713, trimetazidine]", "values": [{"measurement": "tumor size (tumor volume)", "setting": "KN713 40 mg/kg intraperitoneally once a day, column 3 (measured weekly), Control 148.59", "result": 147.09, "unit": "mm^3"}, {"measurement": "tumor size (tumor volume)", "setting": "KN713 40 mg/kg intraperitoneally once a day, column 4 (measured weekly), Control 448.52", "result": 319.40, "unit": "mm^3"}, {"measurement": "tumor size (tumor volume)", "setting": "KN713 40 mg/kg intraperitoneally once a day, column 5 (measured weekly), Control 748.89", "result": 499.29, "unit": "mm^3"}, {"measurement": "tumor size (tumor volume)", "setting": "KN713 40 mg/kg intraperitoneally once a day, column 6 (measured weekly), Control 944.41", "result": 593.57, "unit": "mm^3"}, {"measurement": "tumor size (tumor volume)", "setting": "KN713 40 mg/kg intraperitoneally once a day, column 7 (measured weekly), Control 1472.13", "result": 790.38, "unit": "mm^3"}, {"measurement": "tumor size (tumor volume)", "setting": "KN713 40 mg/kg intraperitoneally once a day, column 8 (measured weekly), Control 1709.54", "result": 965.18, "unit": "mm^3"}, {"measurement": "tumor size (tumor volume)", "setting": "KN713 80 mg/kg intraperitoneally once a day, column 3 (measured weekly), Control 148.59", "result": 147.36, "unit": "mm^3"}, {"measurement": "tumor size (tumor volume)", "setting": "KN713 80 mg/kg intraperitoneally once a day, column 4 (measured weekly), Control 448.52", "result": 279.36, "unit": "mm^3"}, {"measurement": "tumor size (tumor volume)", "setting": "KN713 80 mg/kg intraperitoneally once a day, column 5 (measured weekly), Control 748.89", "result": 372.00, "unit": "mm^3"}, {"measurement": "tumor size (tumor volume)", "setting": "KN713 80 mg/kg intraperitoneally once a day, column 6 (measured weekly), Control 944.41", "result": 420.82, "unit": "mm^3"}, {"measurement": "tumor size (tumor volume)", "setting": "KN713 80 mg/kg intraperitoneally once a day, column 7 (measured weekly), Control 1472.13", "result": 589.49, "unit": "mm^3"}, {"measurement": "tumor size (tumor volume)", "setting": "KN713 80 mg/kg intraperitoneally once a day, column 8 (measured weekly), Control 1709.54", "result": 555.42, "unit": "mm^3"}, {"measurement": "tumor size", "setting": "mouse model transplanted with MIA PaCa2, result in words", "result": "significantly suppressed"}]}]}
